Laboratory results taken from PMC7143076, “Anion Inhibition Studies of the β-Class Carbonic Anhydrase CAS3 from the Filamentous Ascomycete Sordaria macrospora” (Metabolites, 2020).

These molecules were tested against T1, CAS3 (Sordaria macrospora, UniProt F7VU04) (assay: stopped-flow CO2 hydrase assay). Details: read-out: CAS2 ^b; CO2 1.7-17 mM; pH 8.3, 10-20 mM TRIS, 10 mM NaClO4, 20 °C; 15 min preincubation; sodium salt.
T1 construct: gene SMAC_03179
Type: biochemical

T1 sequence (F7VU04 1-174 limits assumed): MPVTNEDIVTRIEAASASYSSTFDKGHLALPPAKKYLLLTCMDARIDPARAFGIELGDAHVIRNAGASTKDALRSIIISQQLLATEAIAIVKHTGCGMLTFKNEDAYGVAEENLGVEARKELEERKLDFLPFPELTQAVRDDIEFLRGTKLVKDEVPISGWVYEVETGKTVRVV

Row | Structure (SMILES) | Ki [mM]
1 | O=C(O)O [CO3^2-] | 8

Same assay, conditions: read-out: CAS3 ^c

Row | Structure (SMILES) | Ki [mM]
2 | N#CO [CNO^-] | 3.2
3 | S [HS^-] | 8.3
4 | [N-]=[N+]=[N-] [N3^-] | 7.2
5 | N#C[SeH] [SeCN^-] | 7.1
6 | O=[Se](=O)(O)O [SeO4^2-] | 3.4
7 | O=[Te](=O)(O)O [TeO4^2-] | 8.1

Same assay, conditions: read-out: CAS3 ^c; CO2 1.7-17 mM; pH 8.3, 10-20 mM TRIS, 10 mM NaClO4, 20 °C; 15 min preincubation

Row | Structure (SMILES) | Ki [mM]
8 | NS(N)(=O)=O [H2NSO2NH2] | 0.094
9 | OB(O)c1ccccc1 [Ph-B(OH)2] | 0.097

Same assay, conditions: read-out: CAS3 ^c; CO2 1.7-17 mM; pH 8.3, 10-20 mM TRIS, 10 mM NaClO4, 20 °C; 15 min preincubation; sodium salt

Row | Structure (SMILES) | Ki [mM]
10 | S=C(S)S [CS3^2-] | 8.6
11 | CCN(CC)C(=S)S [Et2NCS2^-] | 0.89
12 | NS(=O)(=O)O [H2NSO3H] | 0.095
13 | O=C(O)O [HCO3^-] | 3.4
14 | O=NO [NO2^-] | 8.3
15 | O=[N+]([O-])O [NO3^-] | 8.5
16 | N#CS [SCN^-] | 7.3
